{"source": "patent US20070191451A1", "about": "“USE OF BENZO-HETEROARYL SULFAMIDE DERIVATIVES AS NEUROPROTECTIVE AGENTS” (priority 2006, published 2007)", "key": {"[1]": {"tested_on": "Rat Hippocampal Cultures", "experiment": "Cell Titer Glo/Cell Viability in vitro assay, rat hippocampal cultures, insult with 150 μM H2O2", "format": "cell-based", "conditions": "for Cell Titer Glo/Cell Viability / Cell Titer Glo/Cell Viability, Mean: insult with 150 μM H2O2; for Cell Titer Glo/Cell Viability, Mean: mean of 3 plates, n=9", "protocol": "(§1) The assay was run according to the procedure listed within the insert of the kit purchased from Promega (see attachment at the end of the application).\n(§2) Cell cultures were prepared as follows. Dissociated hippocampal and cortical cell cultures were established from embryonic day 18 rat fetuses. The fetuses were removed via cesarean section from pregnant dams (Harlan Sprague-Dawley) anesthetized with halothane according to the AVMA Panel on Euthanasia. Pups were decapitated and the brains were removed and placed in Hank's Balanced Salt solution (1×HBSS; Gibco, Rockville, Md.). The hippocampi and cortices were dissected out and pooled according to tissue-type. Tissue was trypsinized for 15 min (1 mg/ml trypsin-HBSS; Worthington, Lakewood, N.J.), rinsed with fresh HBSS, incubated in trypsin inhibitor (1 mg/ml; Sigma, St. Louis, Mo.) for 5 min, rinsed again with fresh HBSS and then triturated in 1 ml fresh HBSS with a fire-polished glass pipette. Dissociated cells were seeded at 10,000 cells/well onto poly-D-lysine coated 96-well plates (BD BioScience, Bedford, Mass.) containing 100 ul/well Eagle's Minimal Essential Media (MEM; Gibco) supplemented with 26 mM NaHCO3 (Sigma), 40 mM glucose (Sigma), 20 mM KCl (Sigma), 1 mM sodium pyruvate (Sigma), 10% (v/v) heat-inactivated fetal bovine serum (Hyclone, Logan, Utah), and 0.001% gentamicin sulfate (Sigma) (pH 7.4). Serum-free cultures were plated and maintained in Neurobasal medium+B27 supplement (Gibco). Cells were allowed to attach for 24h in a humidified 37° C. 5% CO2 incubator before experimental treatment.\n(§3) Test compounds were prepared as follows: A 10 mM stock in DMSO of each compound was diluted 1:50 in DPBS rendering a final stock of 200 μM. […] Equal amounts of vehicle or diluted compound were added to each culture well.\n(§4) A 30% stock solution of hydrogen peroxide (H2O2; Sigma) was diluted with DPBS 1:100 to yield a […] stock. Five microliters of vehicle or H2O2 stock solution was added to each 100 ul culture well to yield a final concentration of 150 uM.\n(§5) Note that in the data listed below, each plate was run in triplicate for a total of n=9."}, "[2]": {"tested_on": "Rat Cerebral Cortical Cultures", "experiment": "Cell Titer Glo/Cell Viability in vitro assay, rat cerebral cortical cultures, insult with 150 μM H2O2", "format": "cell-based", "conditions": "for Cell Titer Glo/Cell Viability, Mean: mean of 3 plates", "protocol": "as §1, §2, §3, §4, §5"}, "[3]": {"conditions": "compound 0.1 μM, Plate 1 (run in triplicate)"}, "[4]": {"conditions": "compound 0.1 μM, Plate 2 (run in triplicate)"}, "[5]": {"conditions": "compound 0.1 μM, Plate 3 (run in triplicate)"}, "[6]": {"conditions": "compound 1 μM, Plate 1 (run in triplicate)"}, "[7]": {"conditions": "compound 1 μM, Plate 2 (run in triplicate)"}, "[8]": {"conditions": "compound 1 μM, Plate 3 (run in triplicate)"}, "[9]": {"conditions": "compound 10 μM, Plate 1 (run in triplicate)"}, "[10]": {"conditions": "compound 10 μM, Plate 2 (run in triplicate)"}, "[11]": {"conditions": "compound 10 μM, Plate 3 (run in triplicate)"}}, "data": [{"smiles": "NS(=O)(=O)NCc1csc2ccccc12", "note": "[Compound #1, N-(benzo[b]thien-3-ylmethyl)-sulfamide]", "values": [{"measurement": "protecting neurons from death and/or damage from oxidative stress or oxidative injury", "setting": "[1]; conclusion in words from the data of Tables 4 and 5, H2O2 insult", "value": "effective at protecting neurons from death and/or damage"}, {"measurement": "Cell Titer Glo/Cell Viability", "setting": "[1]; [3]", "value": 28}, {"measurement": "Cell Titer Glo/Cell Viability", "setting": "[1]; [4]", "value": 16}, {"measurement": "Cell Titer Glo/Cell Viability", "setting": "[1]; [5]", "value": 17}, {"measurement": "Cell Titer Glo/Cell Viability, Mean", "setting": "[1]; compound 0.1 μM", "value": 20}, {"measurement": "Cell Titer Glo/Cell Viability", "setting": "[1]; [6]", "value": 30}, {"measurement": "Cell Titer Glo/Cell Viability", "setting": "[1]; [7]", "value": 12}, {"measurement": "Cell Titer Glo/Cell Viability", "setting": "[1]; [8]", "value": 13}, {"measurement": "Cell Titer Glo/Cell Viability, Mean", "setting": "[1]; compound 1 μM", "value": 18}, {"measurement": "Cell Titer Glo/Cell Viability", "setting": "[1]; [9]", "value": 41}, {"measurement": "Cell Titer Glo/Cell Viability", "setting": "[1]; [10]", "value": 46}, {"measurement": "Cell Titer Glo/Cell Viability", "setting": "[1]; [11]", "value": 45}, {"measurement": "Cell Titer Glo/Cell Viability, Mean", "setting": "[1]; compound 10 μM, **p < 0.01 (Kruskal-Wallis, Dunn's post-hoc)", "value": "44**"}]}, {"smiles": "NS(=O)(=O)NCc1csc2ccc(F)cc12", "note": "[Compound #8, N-[(5-fluorobenzo[b]thien-3-yl)methyl]-sulfamide]", "values": [{"measurement": "Cell Titer Glo/Cell Viability", "setting": "[2]; [3]", "value": 16}, {"measurement": "Cell Titer Glo/Cell Viability", "setting": "[2]; [4]", "value": 43}, {"measurement": "Cell Titer Glo/Cell Viability", "setting": "[2]; [5]", "value": 19}, {"measurement": "Cell Titer Glo/Cell Viability, Mean", "setting": "[2]; compound 0.1 μM, n=9", "value": 26}, {"measurement": "Cell Titer Glo/Cell Viability", "setting": "[2]; [6]", "value": 13}, {"measurement": "Cell Titer Glo/Cell Viability", "setting": "[2]; [7]", "value": 24}, {"measurement": "Cell Titer Glo/Cell Viability", "setting": "[2]; [8]", "value": 12}, {"measurement": "Cell Titer Glo/Cell Viability, Mean", "setting": "[2]; compound 1 μM, n=9", "value": 16}, {"measurement": "Cell Titer Glo/Cell Viability", "setting": "[2]; [9]", "value": 22}, {"measurement": "Cell Titer Glo/Cell Viability", "setting": "[2]; [10]", "value": 27}, {"measurement": "Cell Titer Glo/Cell Viability", "setting": "[2]; [11]", "value": 30}, {"measurement": "Cell Titer Glo/Cell Viability, Mean", "setting": "[2]; compound 10 μM, n=9, *p < 0.05 (Kruskal-Wallis, Dunn's post-hoc)", "value": "26*"}]}]}
